In brackets after ≈: the same amount, converted by molar mass.
Legend:
Format in all cases: functional
Staphylococcus aureus [1] = assay: Antibacterial activity against Staphylococcus aureus assessed as inhibition of bacterial growth incubated for 18 hrs by two fold broth microdilution assay
Pseudomonas aeruginosa [2] = assay: Antibacterial activity against Pseudomonas aeruginosa ATCC 27853 assessed as inhibition of bacterial growth incubated for 18 hrs by two fold broth microdilution assay
Acinetobacter baumannii = assay: Antibacterial activity against Acinetobacter baumannii assessed as inhibition of bacterial growth incubated for 18 hrs by two fold broth microdilution assay
Staphylococcus aureus [3] = assay: Antibacterial activity against Staphylococcus aureus ATCC 29213 assessed as inhibition of bacterial growth incubated for 18 hrs by two fold broth microdilution assay
Escherichia coli [4] = assay: Antibacterial activity against Escherichia coli assessed as inhibition of bacterial growth incubated for 18 hrs by two fold broth microdilution assay
Klebsiella pneumoniae = assay: Antibacterial activity against Klebsiella pneumoniae assessed as inhibition of bacterial growth incubated for 18 hrs by two fold broth microdilution assay
Enterococcus faecalis = assay: Antibacterial activity against Enterococcus faecalis assessed as inhibition of bacterial growth incubated for 18 hrs by two fold broth microdilution assay
Staphylococcus aureus [5] = assay: Antibacterial activity against methicilin-resistant Staphylococcus aureus N315 assessed as inhibition of bacterial growth incubated for 18 hrs by two fold broth microdilution assay
Staphylococcus aureus [6] = assay: Antibacterial activity against Staphylococcus aureus ATCC 25923 assessed as inhibition of bacterial growth incubated for 18 hrs by two fold broth microdilution assay
Escherichia coli [7] = assay: Antibacterial activity against Escherichia coli ATCC 25922 assessed as inhibition of bacterial growth incubated for 18 hrs by two fold broth microdilution assay
Pseudomonas aeruginosa [8] = assay: Antibacterial activity against Pseudomonas aeruginosa assessed as inhibition of bacterial growth incubated for 18 hrs by two fold broth microdilution assay

| SMILES | MIC (Staphylococcus aureus [1]) [µg/mL] | MIC (Pseudomonas aeruginosa [2]) [µg/mL] | MIC (Acinetobacter baumannii) [µg/mL] | MIC (Staphylococcus aureus [3]) [µg/mL] | MIC (Escherichia coli [4]) [µg/mL] | MIC (Klebsiella pneumoniae) [µg/mL] | MIC (Enterococcus faecalis) [µg/mL] | MIC (Staphylococcus aureus [5]) [µg/mL] | MIC (Staphylococcus aureus [6]) [µg/mL] | MIC (Escherichia coli [7]) [µg/mL] | MIC (Pseudomonas aeruginosa [8]) [µg/mL] |
| --- | --- | --- | --- | --- | --- | --- | --- | --- | --- | --- | --- |
| CC(=O)Nc1ccc(S(=O)(=O)/C(C#N)=C/c2cn(CC3CC3)c3ccccc23)cc1 | 256 (≈ 610 µM) | 64 (≈ 153 µM) | 16 (≈ 38.1 µM) | 64 (≈ 153 µM) | 16 (≈ 38.1 µM) | 64 (≈ 153 µM) | 64 (≈ 153 µM) | 32 (≈ 76.3 µM) | 64 (≈ 153 µM) | 32 (≈ 76.3 µM) | 32 (≈ 76.3 µM) |
| CCCCn1cc(/C=C(\C#N)S(=O)(=O)c2ccc(N)cc2)c2ccccc21 | 2 (≈ 5.27 µM) | 4 (≈ 10.5 µM) | 256 (≈ 675 µM) | 1 (≈ 2.64 µM) | 4 (≈ 10.5 µM) | 1 (≈ 2.64 µM) | 4 (≈ 10.5 µM) | 256 (≈ 675 µM) | 2 (≈ 5.27 µM) | 4 (≈ 10.5 µM) | 2 (≈ 5.27 µM) |
| CCn1cc(C(=O)O)c(=O)c2cc(F)c(N3CCNCC3)cc21 [NORFLOXACIN] | 2 (≈ 6.26 µM) | 4 (≈ 12.5 µM) | 4 (≈ 12.5 µM) | 1 (≈ 3.13 µM) | 4 (≈ 12.5 µM) | 2 (≈ 6.26 µM) | 4 (≈ 12.5 µM) | 8 (≈ 25.1 µM) | 2 (≈ 6.26 µM) | 4 (≈ 12.5 µM) | 2 (≈ 6.26 µM) |
| CC(=O)Nc1ccc(S(=O)(=O)/C(C#N)=C/c2cn(CC(=O)N(C(C)C)C(C)C)c3ccccc23)cc1 | 32 (≈ 63.2 µM) | 64 (≈ 126 µM) | 32 (≈ 63.2 µM) | 64 (≈ 126 µM) | 64 (≈ 126 µM) | 32 (≈ 63.2 µM) | 64 (≈ 126 µM) | 64 (≈ 126 µM) | 32 (≈ 63.2 µM) | 64 (≈ 126 µM) | 64 (≈ 126 µM) |
| N#C/C(=C\c1cn(CC2CC2)c2ccccc12)S(=O)(=O)c1ccc(N)cc1 | 32 (≈ 84.8 µM) | 16 (≈ 42.4 µM) | 64 (≈ 170 µM) | 32 (≈ 84.8 µM) | 256 (≈ 678 µM) | 16 (≈ 42.4 µM) | 128 (≈ 339 µM) | 128 (≈ 339 µM) | 64 (≈ 170 µM) | 16 (≈ 42.4 µM) | 64 (≈ 170 µM) |
| CC(=O)Nc1ccc(S(=O)(=O)/C(C#N)=C/c2c[nH]c3c(C)cccc23)cc1 | 32 (≈ 84.3 µM) | 64 (≈ 169 µM) | 16 (≈ 42.2 µM) | 32 (≈ 84.3 µM) | 4 (≈ 10.5 µM) | 4 (≈ 10.5 µM) | 32 (≈ 84.3 µM) | 64 (≈ 169 µM) | 128 (≈ 337 µM) | 4 (≈ 10.5 µM) | 64 (≈ 169 µM) |
| CCn1cc(/C=C(\C#N)S(=O)(=O)c2ccc(NC(C)=O)cc2)c2ccccc21 | 128 (≈ 325 µM) | 8 (≈ 20.3 µM) | 64 (≈ 163 µM) | 4 (≈ 10.2 µM) | 128 (≈ 325 µM) | 32 (≈ 81.3 µM) | 16 (≈ 40.7 µM) | 64 (≈ 163 µM) | 4 (≈ 10.2 µM) | 128 (≈ 325 µM) | 64 (≈ 163 µM) |
| CC(=O)Nc1ccc(S(=O)(=O)/C(C#N)=C/c2cn(C(=O)OC(C)(C)C)c3ccccc23)cc1 | 128 (≈ 275 µM) | 128 (≈ 275 µM) | 64 (≈ 137 µM) | 2 (≈ 4.3 µM) | 128 (≈ 275 µM) | 128 (≈ 275 µM) | 128 (≈ 275 µM) | 32 (≈ 68.7 µM) | 128 (≈ 275 µM) | 128 (≈ 275 µM) | 128 (≈ 275 µM) |
| N#C/C(=C\c1cn(Cc2ccc([N+](=O)[O-])cc2)c2ccccc12)S(=O)(=O)c1ccc(N)cc1 | 256 (≈ 558 µM) | 128 (≈ 279 µM) | 64 (≈ 140 µM) | 128 (≈ 279 µM) | 128 (≈ 279 µM) | 64 (≈ 140 µM) | 128 (≈ 279 µM) | 128 (≈ 279 µM) | 256 (≈ 558 µM) | 128 (≈ 279 µM) | 64 (≈ 140 µM) |
| C#CCn1cc(/C=C(\C#N)S(=O)(=O)c2ccc(N)cc2)c2ccccc21 | 4 (≈ 11.1 µM) | 4 (≈ 11.1 µM) | 0.5 (≈ 1.38 µM) | 2 (≈ 5.53 µM) | 128 (≈ 354 µM) | 8 (≈ 22.1 µM) | 2 (≈ 5.53 µM) | 2 (≈ 5.53 µM) | 16 (≈ 44.3 µM) | 256 (≈ 708 µM) | 0.5 (≈ 1.38 µM) |
| CC(=O)Nc1ccc(S(=O)(=O)/C(C#N)=C/c2cn(CC3CCCCC3)c3ccccc23)cc1 | 32 (≈ 69.3 µM) | 2 (≈ 4.33 µM) | 32 (≈ 69.3 µM) | 64 (≈ 139 µM) | 256 (≈ 555 µM) | 128 (≈ 277 µM) | 32 (≈ 69.3 µM) | 64 (≈ 139 µM) | 64 (≈ 139 µM) | 32 (≈ 69.3 µM) | 64 (≈ 139 µM) |
| CC(=O)Nc1ccc(S(=O)(=O)/C(C#N)=C/c2cn(CC(=O)OC(C)(C)C)c3ccccc23)cc1 | 128 (≈ 267 µM) | 128 (≈ 267 µM) | 128 (≈ 267 µM) | 16 (≈ 33.4 µM) | 256 (≈ 534 µM) | 128 (≈ 267 µM) | 128 (≈ 267 µM) | 256 (≈ 534 µM) | 128 (≈ 267 µM) | 256 (≈ 534 µM) | 128 (≈ 267 µM) |
| CC(=O)Nc1ccc(S(=O)(=O)/C(C#N)=C/c2cn(Cc3ccc([N+](=O)[O-])cc3)c3ccccc23)cc1 | 256 (≈ 511 µM) | 256 (≈ 511 µM) | 64 (≈ 128 µM) | 2 (≈ 4 µM) | 256 (≈ 511 µM) | 16 (≈ 32 µM) | 128 (≈ 256 µM) | 16 (≈ 32 µM) | 256 (≈ 511 µM) | 64 (≈ 128 µM) | 128 (≈ 256 µM) |
